From the NIST ThermoML archive (doi:10.1016/j.jct.2006.03.006)
± gives the expanded uncertainty stated by the source.

Key:
[1] = refractive index (Na D-line) (dimensionless); settings: 298.15 K; 101.33 kPa; Liquid; Standard Abbe refractometry
[2] = Liquid; for mass density: 298.15 K, 101.33 kPa, Pycnometric method

Row | Structure (SMILES) | refractive index [1] | mass density [2] [kg/m3] | further results
1 | CCO [ethanol] | 1.3594 ± 0.0012 | 784.9 ± 4.5 | vapor or sublimation pressure ([2]; 349.95 K): 95.5 ± 5 kPa
2 | CO [methanol] | 1.3265 ± 0.0012 | 786.4 ± 4.6 | vapor or sublimation pressure ([2]; 336.25 K): 95.5 ± 5 kPa
3 | CC(C)CO [2-methyl-1-propanol] | 1.3939 ± 0.0012 | 797.8 ± 4.7 | vapor or sublimation pressure ([2]; 379.65 K): 95.5 ± 5 kPa
4 | CCCO [propan-1-ol] | 1.3837 ± 0.0012 | 799.6 ± 4.7 | vapor or sublimation pressure ([2]; 368.85 K): 95.5 ± 5 kPa
5 | CC(C)O [propan-2-ol] | 1.3752 ± 0.0012 | 781.3 ± 4.5 | vapor or sublimation pressure ([2]; 355.05 K): 95.5 ± 5 kPa
6 | CCC(C)O (configuration not stated) [butan-2-ol] | 1.3953 ± 0.0012 | 802.4 ± 4.7 | vapor or sublimation pressure ([2]; 371.26 K): 95.5 ± 5 kPa
7 | CC(C)(C)O [2-methylpropan-2-ol] | 1.3852 ± 0.0012 | 781.2 ± 4.5 | vapor or sublimation pressure ([2]; 354.15 K): 95.5 ± 5 kPa
8 | CCCCO [butan-1-ol] | 1.3974 ± 0.0012 | 805.8 ± 4.8 | vapor or sublimation pressure ([2]; 389.35 K): 95.5 ± 5 kPa
9 | Cc1cccc(O)c1 [3-methylphenol] | 1.5395 ± 0.0012 | 1030 ± 7.7 | vapor or sublimation pressure ([2]; 473.75 K): 95.5 ± 5 kPa
